Reference: patent publication US20220218714A1, “METHOD OF TREATING CANCER” (Epizyme, Inc., priority 2013, published 2022)

Test system: H3K27me3 in HS-SY-II xenograft
Experiment: H3K27me3 ELISA of HS-SY-II xenograft tumors harvested on Day 28
Format: in vivo, athymic nude mice
Details: Day 28, 3 h after the last dose; second study
Method: FIGS. 10A to 10C show mean in vivo tumor volumes for athymic nude mice bearing HS-SY-II xenografts. In a first study, mice were dosed with either vehicle (oral for 28 days or iv on Day 1 and Day 22), Compound A (oral: 125 mg/kg, 250 mg/kg, or 500 mg/kg for 28 days), or Doxorubicin (iv: 10 mg/kg, Day 1 and Day 22); tumor volumes were measured twice a week (FIGS. 10A and 10B). In a second study, mice were dosed with either vehicle (oral for 28 days), Compound A (oral: 250 mg/kg or 500 mg/kg for 28 days), Doxorubicin (iv: 10 mg/kg on Day 1 and Day 22), or a combination of Doxorubicin (iv: 10 mg/kg on Day 1 and Day 22) and Compound A (oral: 250 mg/kg for 28 days) (FIG. 10C). Tumors from animals of the second study were harvested on Day 28 (3 h after the last dose) and subjected to H3K27me3 analysis by ELISA (FIG. 10D) or IHC for the proliferation marker Ki67 (FIG. 10E).
For FIG. 10D, tumors were snap-frozen in liquid nitrogen. […] Histones were quantified using the BCA protein assay (23225, Pierce). […] Subsequently, the developed colors in the wells were measured using a plate spectrophotometer (SpectraMax 250, Molecular Devices) at 450 nm (reference wavelength 650 nm). The H3K27me3 levels were adjusted to total histone H3, and expressed as fold changes to vehicle control. […] Histones were extracted and quantified, and the levels of H3K27me3 were analyzed as described above. […]

CCN(c1cc(-c2ccc(CN3CCOCC3)cc2)cc(C(=O)NCc2c(C)cc(C)[nH]c2=O)c1C)C1CCOCC1 [Compound A]
H3K27me3 levels in tumors (fold change to vehicle control): significantly reduced
